For experiment [1] the following is noted: read-out: Kd,Zn(II); cited from earlier work.
Experiment [2] concerns the target T1, NDM-1 (Klebsiella pneumoniae, UniProt C7C422). Conditions: read-out: IC50 for purified NDM-1; cited from earlier work.
For experiment [3], the target named is T1, NDM-1. The experiment is described as follows: NDM-1 inhibition with chromacef substrate. Format: biochemical.
In another experiment the target is NDM-15 Δ35 BL21 cells (Klebsiella pneumoniae, UniProt C7C422, A233V/M154L). Description: Confocal fluorescence imaging of 4D-treated live E. coli expressing Δ35 NDM-15. Format: cell-based. Conditions: DPA up to 200 μM.
The target of experiment [4] is Δ35 NDM-1 expressing BL21 (DE3) E. coli (Klebsiella pneumoniae, UniProt C7C422). Description: cell-based.
For experiment [5], the target named is T1, NDM-1. Description: Challenge of fluorescent 4D:NDM-1 complex with inhibitors and chelators. Format: binding.
Experiment [6] relates to NDM-1. Conditions: substrate of NDM-1; cited from earlier work.

The values below come from publication PMC8230704 (Journal of the American Chemical Society, 2021).

Like-named read-outs stand apart in the source and are kept apart here.

Broadly, the Kd is the concentration at which binding is half-saturated. A word on the IC50: it is the concentration needed to halve the response being measured. The Km is the concentration of substrate that gives half-maximal velocity.

Consider `O=C([O-])CN(CCN(CC(=O)O)CC(=O)O)CC(=O)[O-].[Ca+2]` [CaEDTA, calcium EDTA], for which the Kd in experiment [1] is 0.001 µM.
`O=C(O)c1cccc(C(=O)O)n1` [DPA, dipicolinic acid]: the IC50 on NDM-1 [2] was 0.5 µM; at NDM-1 [3] it was 154 µM; in experiment [4], about 200 µM. Further, the “effect on fluorescence” value at NDM-15 Δ35 BL21 cells is “no effect on fluorescence”. Further, the “fluorescence turn-on of 4D:NDM-1 after treatment” value on NDM-1 [5] (DPA 150 μM, 50 μM ZnSO4, from 17-fold maximum) was 13 fold.
Take `c1ccc(CN(CCN(Cc2ccccn2)Cc2ccccn2)Cc2ccccn2)nc1` [TPEN, N,N,N′,N′-tetrakis(2-pyridinyl-methyl)-1,2-ethanediamine]: the “fluorescence after pre-incubation of NDM-1 with TPEN” value at NDM-1 [5] (10 μM NDM-1 and 10 μM 4D, recovered upon excess ZnSO4) is recorded as “complete reduction of fluorescence”. In addition, at NDM-1 [5] (30 μM NDM-1 pre-incubated with TPEN, then 10 μM 4D), the “fluorescence turn-on after pre-incubation of NDM-1 with TPEN” value is ~ 4 fold. Also, the “fluorescence turn-on of 4D:NDM-1 after treatment” value at NDM-1 [5] (TPEN 50 μM, 10 μM ZnSO4, from 12-fold) was determined as 9.2 fold.
Turning to `CC1=C(C(=O)O)N2C(=O)[C@@H](NC(=O)[C@H](N)c3ccccc3)[C@H]2SC1` [cephalexin], in the experiment on NDM-1 [6], the Michaelis-Menten constant (Km) is 5.6 µM.
Take chromacef: the Km in the experiment with NDM-1 [6] is 0.66 ± 0.2 µM.
